# Results taken from PMC3862409 (International Journal for Parasitology, Drugs and Drug …, 2013).
# Changes are numbered by the printed parent chain. “Also recorded” adds a separate entry of the source.
# Legend:
# [1] = target: T1, T. brucei hexokinase 1 (TbHK1), WT (Trypanosoma brucei brucei, UniProt Q38C42); assay: Coupled hexokinase assay; type: biochemical
# T1 sequence (Q38C42 1-471): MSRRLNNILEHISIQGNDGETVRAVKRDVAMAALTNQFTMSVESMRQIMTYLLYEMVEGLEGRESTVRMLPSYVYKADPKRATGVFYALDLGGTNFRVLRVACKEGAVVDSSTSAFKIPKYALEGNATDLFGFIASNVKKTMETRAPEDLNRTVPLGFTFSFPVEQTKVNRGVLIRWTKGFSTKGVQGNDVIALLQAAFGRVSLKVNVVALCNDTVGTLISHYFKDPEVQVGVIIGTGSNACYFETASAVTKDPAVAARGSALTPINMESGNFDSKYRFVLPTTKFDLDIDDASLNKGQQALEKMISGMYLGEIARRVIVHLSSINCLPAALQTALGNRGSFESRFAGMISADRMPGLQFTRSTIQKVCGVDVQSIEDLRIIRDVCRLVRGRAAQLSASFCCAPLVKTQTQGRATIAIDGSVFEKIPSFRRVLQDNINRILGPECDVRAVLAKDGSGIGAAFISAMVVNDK
# [2] = target: T2, TbHK1 (Trypanosoma brucei brucei, UniProt Q38C42); conditions: ref Sharlow et al., 2010b, cited from earlier work; for Inhibition of TbHK1: LOPAC screen, at 10 μM
# T2 sequence (Q38C42 1-471): T1 sequence (Q38C42 1-471)
# [3] = tested on: HK from Plasmodium falciparum (PfHK); conditions: ref Harris et al., 2013, cited from earlier work
# [4] = tested on: parasite G6-P levels; conditions: after acute exposure; ref Sharlow et al., 2010a,b; cited from earlier work
# [5] = tested on: T. brucei parasites; conditions: ref Sharlow et al., cited from earlier work; for EC50: read-out: EC50 against parasites, unit inferred, 2010a,b; for Toxicity to parasites: 2010b
# [6] = target: T3, TbHK1 C212S (Trypanosoma brucei brucei, UniProt Q38C42, C212S); assay: Coupled hexokinase assay, TbHK1 Cys variant C212S; type: biochemical
# T3 sequence (Q38C42 1-471 C212S): T1 sequence (Q38C42 1-471) with C212S
# [7] = target: T4, TbHK1 C401A (Trypanosoma brucei brucei, UniProt Q38C42, C401A); assay: Coupled hexokinase assay, TbHK1 Cys variant C401A; type: biochemical
# T4 sequence (Q38C42 1-471 C401A): T1 sequence (Q38C42 1-471) with C401A
# [8] = cited from earlier work
# [9] = target: T2, TbHK1; assay: Native gel analysis of TbHK1 oligomerization; conditions: data not shown
# [10] = target: T5, TbHK1 C369A (Trypanosoma brucei brucei, UniProt Q38C42, C369A); assay: Coupled hexokinase assay, TbHK1 Cys variant C369A; type: biochemical
# T5 sequence (Q38C42 1-471 C369A): T1 sequence (Q38C42 1-471) with C369A
# [11] = target: T6, TbHK1 C445A (Trypanosoma brucei brucei, UniProt Q38C42, C445A); assay: Coupled hexokinase assay, TbHK1 Cys variant C445A; type: biochemical
# T6 sequence (Q38C42 1-471 C445A): T1 sequence (Q38C42 1-471) with C445A
# [12] = tested on: human indoleamine 2,3-dioxygenase (IDO); conditions: covalent modification of multiple Cys residues; ref Terentis et al., 2010; cited from earlier work
# [13] = target: T7, TbHK1 C242A (Trypanosoma brucei brucei, UniProt Q38C42, C242A); assay: Coupled hexokinase assay, TbHK1 Cys variant C242A; type: biochemical
# T7 sequence (Q38C42 1-471 C242A): T1 sequence (Q38C42 1-471) with C242A
# [14] = target: T8, TbHK1 C402A (Trypanosoma brucei brucei, UniProt Q38C42, C402A); assay: Coupled hexokinase assay, TbHK1 Cys variant C402A; type: biochemical
# T8 sequence (Q38C42 1-471 C402A): T1 sequence (Q38C42 1-471) with C402A
# [15] = tested on: glucose-6-phosphate dehydrogenase (G6PDH); assay: Counterscreen for inhibition of G6PDH; type: biochemical
smiles,measurement,setting,value
"O[C@@H](CS)[C@@H](O)CS (racemic) [DTT, dithiothreitol]",Impact on enzyme activity,"[1]; DTT alone, 100 mM",little impact on enzyme activity
O=C(O)c1cc[c]([Hg][Cl])cc1 [4-chloromercuribenzoic acid],Inhibition of TbHK1,[2],84.7 ± 0.4%
"O=c1c2ccccc2sn1-c1ccccc1 [EbS, 2-phenyl-1,2-benzisothiazol-3(2H)-one]",Reversibility of PfHK inhibition by dilution,[3],completely relieved by dilution
same,Effect on parasite G6-P levels,[4],able to reduce parasite G6-P levels
same,EC50,[5],30 ± 67 nM
same,Toxicity to parasites,[5],toxic to parasites
"O=c1c2ccccc2[se]n1-c1ccccc1 [EbSe, 2-phenyl-1,2-benzisoselenazol-3(2H)-one]",Potency against PfHK relative to TbHK1,[3]; more potent on PfHK,~10 fold
same,Reversibility of PfHK inhibition by dilution,[3],completely relieved by dilution
same,Sensitivity of variant to inhibition,[6],remained sensitive
same,IC50,"[6]; read-out: EbSe IC50, relative to WT",< 350 nM
same,Effect on parasite G6-P levels,[4],able to reduce parasite G6-P levels
same,IC50,[7],290 ± 40 nM
same,Toxicity to humans,"[8]; human, in vivo",non-toxic
same,Outcome of patients suffering stroke,"[8]; ref Yamaguchi et al., 1998",improve the outcome
same,Impact on oligomerization of TbHK1,[9],neither EbSe nor TCEP impact oligomerization
same,IC50,[1],350 ± 70 nM
same,Reversibility of inhibition by dilution,[1]; 200-fold dilution of enzyme and inhibitor after pre-incubation,not reversible; also recorded: irreversible
same,Rescue of enzyme activity by DTT added after inhibitor incubation,[1]; DTT 100 mM added after incubation with inhibitor,only modestly rescued enzyme activity
same,Relief of inhibition by excess Mg2+,"[1]; Mg2+ at ~15-fold higher concentrations than standard reaction, data not shown",did not relieve EbSe inhibition
same,Effect of pre-incubation of TbHK1 with DTT on inhibition,[1]; data not shown,prevented EbSe inhibition
same,Effect of pre-incubation with MPB on inhibition,[1]; enzyme pre-incubated with MPB,did not appreciably alter EbSe inhibition
same,IC50,[10],260 ± 20 nM
same,EC50,[5],2900 ± 280 nM
same,Toxicity to parasites,[5],toxic to parasites
same,IC50,[11],520 ± 50 nM
same,Inhibition of human IDO,[12],inhibited
same,IC50,[13],550 ± 20 nM
same,IC50,[14],430 ± 110 nM
same,Inhibition of G6PDH in counterscreen,[15],ineffective
same,Inhibition of TbHK1,[2],88.1 ± 0.6%
same,Mode of inhibition,[2]; with respect to ATP,mixed inhibitors
"O=C(CCCCC1SCC2NC(=O)NC21)NCCCCC(NC(=O)CCN1C(=O)C=CC1=O)C(=O)O (stereo not drawn) [MPB, 3-(N-maleimidopropionyl)-biocytin]",Impact on enzyme activity,[1]; MPB at concentrations up to 50 μM,did not impact enzyme activity
"O=C(O)CCP(CCC(=O)O)CCC(=O)O [TCEP, tris (2-carboxyethyl)phosphine]",Impact on oligomerization of TbHK1,[9],neither EbSe nor TCEP impact oligomerization
